Results reported in the C3SDB collision cross section collection.
Several values for one entry are separate records, joined by “and”; a condition that tells them apart may be missing. Equal entries are not always repeated.

Conditions: instrument: DT, single field, calibrated with Agilent tune mix (Agilent)

Compound | collision cross section (N2) ([M+H]+) | collision cross section (N2) ([M-H]-) [Å²] | also measured
Cn1c(=O)c2[nH]c(=O)[nH]c2n(C)c1=O [1,3-Dimethyluric acid] | 142.5 Å² | 134.24 | –
Cn1cnc2c(ncn2[C@@H]2O[C@H](CO)[C@@H](O)[C@H]2O)c1=N [1-Methyladenosine] | 164.2 Å² | 159.21 | –
Cn1c(=O)[nH]c2nc[nH]c2c1=O [1-Methylxanthine] | – | 124.23 | –
CCCCCCCCCCCCCCCCCC(=O)OC[C@@H](O)CO [1-Stearoyl-sn-glycerol] | – | – | collision cross section (N2) ([M+H-H2O]+): 199.6 Å²
Nc1ncnc2c1ncn2[C@H]1C[C@H](O)[C@@H](COP(=O)(O)OP(=O)(O)OP(=O)(O)O)O1 [2'-Deoxyadenosine 5'-triphosphate] | – | 183.78 | –
Nc1nc(=O)c2ncn([C@H]3C[C@H](O)[C@@H](COP(=O)(O)OP(=O)(O)O)O3)c2[nH]1 [2'-Deoxyguanosine 5'-diphosphate] | – | – | collision cross section (N2) ([M-H2O-H]-): 174.28 Å²
O=c1ccn([C@H]2C[C@H](O)[C@@H](CO)O2)c(=O)[nH]1 [2'-Deoxyuridine] | – | 145.91 | collision cross section (N2) ([M+Na]+): 156 Å²
O=C(O)c1cccc(O)c1O [2,3-Dihydroxybenzoic acid] | – | 118.42 | –
CCCCCCCC/C=C/CCCCCCCC(=O)O[C@H](COC(=O)CCCCCCCCCCCCCCC)COP(=O)([O-])OCC[N+](C)(C)C [2-Oleoyl-1-palmitoyl-sn-glycero-3-phosphocholine] | 286.7 Å² | 272.17 | –
Nc1ncnc2c1ncn2[C@@H]1O[C@H](COP(=O)(O)OS(=O)(=O)O)[C@@H](OP(=O)(O)O)[C@H]1O [3'-Phosphoadenosine 5'-phosphosulfate] | – | 192.76 | –
O=C(O)CCc1ccc(O)c(O)c1 [3,4-Dihydroxyhydrocinnamic acid] | – | 133.05 | –
O=C(O)C(O)c1ccc(O)c(O)c1 (stereo unspecified) [3,4-Dihydroxymandelic acid] | – | 135 | collision cross section (N2) ([M+H-H2O]+): 132 Å²
Nc1cccc(C(=O)O)c1O [3-Aminosalicylic acid] | – | 122.07 | –
CC(O)(CC(=O)O)CC(=O)O [3-Hydorxy-3-methylglutaric acid] | – | 123.66 | –
O=C(O)Cc1cccc(O)c1 [3-Hydroxyphenylacetic acid] | – | – | collision cross section (N2) ([M+Na-2H]-): 135.74 Å²
N[C@@H](Cc1ccc(O)c(I)c1)C(=O)O [3-Iodo-L-tyrosine] | 158.8 Å² | – | collision cross section (N2) ([M+Na-2H]-): 148.03 Å²
CC(CCC(=O)O)CC(=O)O (stereo unspecified) [3-Methyladipic acid] | – | 129.01 | –
CC(C)CC(=O)SCCNC(=O)CCNC(=O)[C@H](O)C(C)(C)COP(=O)(O)OP(=O)(O)OC[C@H]1O[C@@H](n2cnc3c(N)ncnc32)[C@H](O)[C@@H]1OP(=O)(O)O [3-Methylbutanoyl-CoA] | – | 255.72 | –
O=C(O)CCc1ccccc1 [3-Phenylpropanoic acid] | – | 135.74 | –
NC(=O)NCCC(=O)O [3-Ureidopropionate] | – | – | collision cross section (N2) ([M+Na]+): 132.3 Å²
C[C@]12CC[C@@H](O)C[C@@H]1CC[C@@H]1[C@@H]2CC[C@]2(C)C(=O)CC[C@@H]12 [3alpha-Hydroxy-5alpha-androstan-17-one] | – | 176.71 | –
O=C(O)/C=C/c1ccc(O)cc1 [4-Hydroxycinnamic acid] | – | 129.27 | collision cross section (N2) ([M+H-H2O]+): 127 Å²
CC1=C(/C=C/C(C)=C/C=C/C(C)=C/CO)C(C)(C)CCC1=O [4-Oxoretinol] | – | – | collision cross section (N2) ([M+H-H2O]+): 173.3 Å²
COc1ccc2[nH]cc(CCN(C)C)c2c1 [5-Methoxydimethyltryptamine] | 151.5 Å² | 153.76 | –

Second part, led by results:

collision cross section (N2) ([M+H]+) | collision cross section (N2) ([M-H]-) [Å²] | Compound | also measured
147.1 Å² | 141.62 | CCCCCCC(N)C(=O)O (racemic) [DL-2-Aminooctanoic acid] | –
137.8 Å² | 134.74 | O=C(O)C(O)Cc1ccccc1 (racemic) [DL-3-Phenyllactic acid] | –
157.9 Å² | – | N[C@@H](CCSSCC[C@H](N)C(=O)O)C(=O)O (racemic) [DL-Homocystine] | collision cross section (N2) ([M+Na-2H]-): 152.2 Å²
– | 140.9 | COc1cc(C(O)C(=O)O)ccc1O (racemic) [DL-Vanillylmandelic acid] | collision cross section (N2) ([M+H-H2O]+): 133.3 Å²
135.3 Å² and 135.8 Å² | – | Cc1ncc(CO)c(C(=O)O)c1O [4-Pyridoxic acid] | –
121.3 Å² | 124.49 | NCCCCC(=O)O [5-Aminopentanoic acid] | –
135.1 Å² | 131.7 | NC[C@H](O)CC[C@H](N)C(=O)O [5-Hydroxy-L-lysine] | –
140.9 Å² | – | O=C(O)Cc1c[nH]c2ccc(O)cc12 [5-Hydroxyindoleacetate] | –
138.7 Å² | 134.49 | OCCc1c[nH]c2ccc(O)cc12 [5-Hydroxytryptophol] | –
149.6 Å² | 140.25 | C[C@H](NC(=O)CC[C@H](N)C(=O)O)C(=O)O [5-L-Glutamyl-L-alanine] | –
144 Å² | – | COc1ccc2[nH]cc(CC(=O)O)c2c1 [5-Methoxyindoleacetate] | –
